From article PMC12796071, “Evaluation of [^18F]MNI-1054, a novel PET ligand for lysine-specific histone demethylase 1A (LSD1), in non-human primates” (EJNMMI Research, 2025)
Where “and” joins values, the source holds several entries; their conditions need not be identical. Equal values may be shown once. Entries after “also recorded” stand apart in the source; their conditions may differ.

How the values were obtained:
[1] = TAK-418 plasma concentration after 5-minute intravenous bolus; assay type: in vivo, rhesus monkeys (macaca mulatta); details: 0.3 mg/kg iv
LSD1 [2] = biological target: T1, LSD1 (Macaca mulatta, UniProt I2CUD2); experiment: PET imaging of the testes (baseline and TAK-418 blocking); details: TAK-418 3.0 mg/kg iv 120 min before tracer, M3
Description: TAK-418 (3 mg/kg) was administered as an intravenous bolus over 5-min, starting 120 min prior to [^18F]MNI-1054 administration.

LSD1 [3] = biological target: T1, LSD1; experiment: LSD1 enzyme occupancy in brain from [18F]MNI-1054 PET blocking, self-block and repopulation studies; assay type: in vivo, rhesus monkeys (macaca mulatta); design: from tissue; host or cells: brain of living rhesus monkeys (M1, M2), in vivo PET; details: for Occupancy: from Ki
Description: M1 and M2 each completed a scan at baseline to assess brain penetration and kinetics and to serve as reference for the blocking and displacement studies. A self-block study with cold 3 mg/kg MNI-1054, starting 5 min prior to [^18F]MNI-1054 administration, was conducted in M1 to assess regional differences in non-specific binding.
Blocking studies with the LSD1 inhibitor TAK-418 ([…]) were performed to measure the dose-occupancy relationship for this compound. For blocking studies, TAK-418 was administered intravenously 2 h prior to [^18F]MNI-1054. Prior to conducting these blocking studies, a displacement study with TAK-418 (3 mg/kg) was performed to confirm irreversible tracer binding, in which TAK-418 was administered 1.5 h post [^18F]MNI-1054 administration. For all studies involving TAK-418, the test article was administered intravenously over 5 min. Due to the irreversible binding of these compounds to LSD1, the time taken for the enzyme to re-populate was investigated by imaging one animal (M2) with [^18F]MNI-1054 at 24 and 48 h post TAK-418 treatment (0.3 mg/kg). Each animal also underwent a high-resolution T1-weighted structural brain MRI scan with a 3-D MPRAGE sequence on a separate day for anatomical reference.
Regional occupancy due to TAK-418 or unlabeled MNI-1054 as measured with [^18F]MNI-1054 was computed as the percent change relative to the baseline value of Ki, i.e. where the drug was either TAK-418 or MNI-1054. An Emax model with maximum occupancy constrained to a value less than 100% was fitted to the dose-occupancy plot to estimate Omax (maximal occupancy) and ED50 [mg/kg] representing the injected TAK-418 dose yielding 50% LSD1 occupancy.

[4] = cerebellum, TAK-418 iv 2 h before tracer

O=C(NC1CCOCC1)c1csc([C@@H]2C[C@H]2NCC2CC2)c1 [TAK-418]
TAK-418 levels in plasma ([1]; 24 and 48 hours post-dose, M2): no detectable levels; also recorded: below the level of detection | plasma concentration as percent of its peak value ([1]; after 5 h): 0.45% | occupancy in the testes (LSD1 [2]; from fractional changes in a parameter other than Ki): 94.4% | signal blockade in the testes (LSD1 [2]; compared with control leg muscle, 3 mg/kg): significant signal blockade; also recorded: substantial reduction | Occupancy based on fractional changes in k3 (LSD1 [3]; cerebellum, TAK-418 0.005 mg/kg, 2 h post-dose): 2.4% | Occupancy (LSD1 [3]; cerebellum, TAK-418 0.005 mg/kg, 2 h post-dose, M2): −21.3% | [18F]MNI-1054 Ki 2 h post-dose (LSD1 [3]; cerebellum, TAK-418 0.005 mg/kg, M2): 0.057 mL/cm^3/min | Occupancy (LSD1 [3]; cerebellum, TAK-418 0.01 mg/kg, 2 h post-dose, M1): 47.3% | [18F]MNI-1054 Ki 2 h post-dose (LSD1 [3]; cerebellum, TAK-418 0.01 mg/kg, M1): 0.030 mL/cm^3/min | Occupancy (LSD1 [3]; cerebellum, TAK-418 0.03 mg/kg, 2 h post-dose, M2): 62.5% | [18F]MNI-1054 Ki 2 h post-dose (LSD1 [3]; cerebellum, TAK-418 0.03 mg/kg, M2): 0.017 mL/cm^3/min | Occupancy (LSD1 [3]; cerebellum, TAK-418 0.3 mg/kg, 2 h post-dose, M1): 89.9% | LSD1 enzyme occupancy (LSD1 [3]; cerebellum, TAK-418 0.3 mg/kg, 24 h post-dose, M2): 29.8% | [18F]MNI-1054 Ki 2 h post-dose (LSD1 [3]; cerebellum, TAK-418 0.3 mg/kg, M1): 0.006 mL/cm^3/min | half-life for occupancy to decrease to zero (proxy for LSD1 enzyme repopulation) (LSD1 [3]; cerebellum, TAK-418 0.3 mg/kg, exponential fit to 2, 24 and 48 h occupancy): 12.28 h | Occupancy (LSD1 [3]; cerebellum, TAK-418 3 mg/kg, 2 h post-dose, M1, 3 mg/kg): 90.1% | [18F]MNI-1054 Ki 2 h post-dose (LSD1 [3]; cerebellum, TAK-418 3 mg/kg, M1): 0.005 mL/cm^3/min | ED50 (Emax model fit) (LSD1 [3]; [4]): 0.0224 mg/kg and ~ 0.0224 mg/kg | Omax (Emax model fit) (LSD1 [3]; [4]): 95.6% | ED50 (Emax model fit) (LSD1 [3]; occipital cortex): 0.0279 mg/kg and ~ 0.0279 mg/kg | Omax (Emax model fit) (LSD1 [3]; occipital cortex): 77.3% | ED50 (Emax model fit) (LSD1 [3]; pons): 0.046 mg/kg | Omax (Emax model fit) (LSD1 [3]; pons): 73.3%
